Laboratory results as given in PMC10209615, “Pharmacological inhibition of LSD1 suppresses growth of hepatocellular carcinoma by inducing GADD45B” (MedComm, 2023).

Legend:
nine HCC cell lines = assay: CCK‐8 cell proliferation assay; format: cell-based; details: Homo sapiens; post‐treatment for 144 h; read-out: half‐maximal inhibitory concentration (IC50), proliferation of HCC cell lines
Description: Cell viability was determined using Cell Counting Kit‐8 (CCK8; Dojindo) or 3‐(4, 5‐dimethylthiazol‐2‐yl)‐2,5‐diphenyltetrazoliumbromide (MTT, Sigma Aldrich) assay. […] Consequently, cell viability was determined using a microplate reader (Thermo Fisher) at 450 nm for CCK8 assay, or 570 nm for MTT assay, at different time points. The IC50 values and CI values were analyzed and calculated using GraphPad Prism 8 and CompuSyn (version 1.0; http://www.combosyn.com), respectively.

HepG2 = assay: Cell proliferation assay; format: cell-based; details: Homo sapiens, HepG2, 144 h
Description: (§1) Cell viability was determined using Cell Counting Kit‐8 (CCK8; Dojindo) or 3‐(4, 5‐dimethylthiazol‐2‐yl)‐2,5‐diphenyltetrazoliumbromide (MTT, Sigma Aldrich) assay. A selection of HCC cells was exposed to gradient concentration of ZY0511 for 96–144 h, or exposed to other LSD1 inhibitors including SP2509, GSK2879552, and ORY1001 for 144 h, or exposed to DTP3, which enhanced the apoptosis induction function of GADD45B for 96 h in combination therapy. Consequently, cell viability was determined using a microplate reader (Thermo Fisher) at 450 nm for CCK8 assay, or 570 nm for MTT assay, at different time points. The IC50 values and CI values were analyzed and calculated using GraphPad Prism 8 and CompuSyn (version 1.0; http://www.combosyn.com), respectively.

PLC/PRF/5 = assay: Cell proliferation assay; format: cell-based; details: Homo sapiens; PLC/PRF/5, 144 h
Description: as §1

HuH7 = assay: Cell proliferation assay; format: cell-based; details: Homo sapiens, Huh-7; HuH7, 144 h
Description: as §1

Hep3B = assay: Cell proliferation assay; format: cell-based; details: Homo sapiens, 144 h
Description: as §1

JHH7 = assay: Cell proliferation assay; format: cell-based; details: Homo sapiens, JHH7, 144 h
Description: as §1

QGY7701 = assay: Cell proliferation assay; format: cell-based; details: Homo sapiens, QGY7701, 144 h
Description: as §1

HCCLM3 = assay: Cell proliferation assay; format: cell-based; details: Homo sapiens, HCCLM3, 144 h
Description: as §1

HuH6 = assay: Cell proliferation assay; format: cell-based; details: Homo sapiens, HuH-6; HuH6, 144 h
Description: as §1

SK-Hep-1 = assay: Cell proliferation assay; format: cell-based; details: Homo sapiens, SK-HEP1; SK-Hep-1, 144 h
Description: as §1

[1] = molecular target: Truncated human LSD1 (residues 172–836) (Homo sapiens, UniProt O60341); assay: Surface plasmon resonance (Biacore); format: binding; details: 25°C, read-out: dissociation constant (KD)
Description: Briefly, the truncated LSD1 was cloned into a pET28a plasmid and expressed in Escherichia coli BL21(DE3) at 18°C (Novagen). The fusion protein was purified by the nickel charged nitrilotriacetic acid (Ni‐NTA, GE Healthcare) with buffer A (20 mM Tris‐HCl, pH 8.5, 10 mM imidazole, 500 mM NaCl, and 2 mM dithiothreitol DTT) and buffer B (20 mM Tris‐HCl, Ph 8.5, 500 mM imidazole, 500 mM NaCl, and 2 mM DTT). Then, LSD1 was digested overnight with Thrombin Protease (Sigma Aldrich) to remove His‐tag and dialyzed against buffer C (20 mM Tris‐HCl, pH 8.5, 150 mM NaCl, and 2mM DTT) overnight at 4°C. The next day, the target protein was applied to Ni‐NTA again to remove the uncleaved His‐tag protein. LSD1 without His‐tag was further purified by an S200 16/600 column (GE Healthcare) in buffer C. The quality of purified LSD1 was checked by sodium dodecyl sulphate‐polyacrylamide gel electrophoresis (SDS‐PAGE).[47]
LSD1 protein was immobilized on a CM5 sensor chip by the amine‐coupling method. […] The binding kinetics was analyzed using BIAevaluation software (version 4.1, Biacore).

IC50 (nine HCC cell lines)	IC50 (HepG2)	IC50 (HuH7)	IC50 (Hep3B)	IC50 (HCCLM3)	IC50 (HuH6)	IC50 (SK-Hep-1)	Compound	IC50 (PLC/PRF/5)	IC50 (JHH7)	IC50 (QGY7701)	Kd [1]
≥ 28.6 µM	> 100 µM	> 100 µM	> 100 µM	> 100 µM	> 100 µM	> 100 µM	O=C(O)c1ccc(CN2CCC(CN[C@@H]3C[C@H]3c3ccccc3)CC2)cc1 [GSK2879552]	> 100 µM	> 100 µM	> 100 µM	–
≥ 28.6 µM	> 100 µM	> 100 µM	28.6 ± 6.72 µM	> 100 µM	46.3 ± 1.39 µM	35.8 ± 5.05 µM	N[C@H]1CC[C@H](N[C@@H]2C[C@H]2c2ccccc2)CC1 [ORY1001]	> 100 µM	56.2 ± 9.07 µM	> 100 µM	–
–	–	–	–	–	–	–	C/C(=N\NC(=O)c1cccc(S(=O)(=O)N2CCOCC2)c1)c1cc(Cl)ccc1O [SP2509]	–	–	–	0.0198 µM
